A word on the pEC50: it is −log10 of the EC50, conventionally taken in molar units. A high value points to a small EC50.

Molecules are shown by their SMILES. Some results are limits rather than exact numbers.

In the assay the test system is Plasmodium falciparum 3D7. In words: pEC50, asexual blood-stage growth inhibition. To be noted: 72 h. The method, then:
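Held-out test set measured in the Guy lab in 2014 with the same procedure as the primary St. Jude screen. P. falciparum 3D7 blood-stage culture (2% hematocrit, 1% parasitemia) was treated with compound for 72 h at 37 °C, and growth was read by SYBR Green I fluorescence. EC50 came from a four-parameter Hill fit over a 10-point dilution series […].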
For the compound `COc1ccc(CCN2C(=O)N(c3cccc(Cl)c3)C(=O)C2CC(=O)Nc2ccc(F)cc2)cc1` (stereo not drawn), the negative-log EC50 (pEC50) was less than 4.82.
As for `Cc1ccc(OCC(O)CNC2CCCCC2)cc1` (stereo not drawn), the pEC50 was 5.83.
To `CCCn1c(=N)n(CC(O)COc2ccc(Cl)cc2)c2ccccc21` (stereo not drawn) belongs less than 4.82; to `CC1=C(C(=O)OCCOc2ccccc2)C(c2ccc(F)cc2)C2=C(CC(c3ccccc3)CC2=O)N1` (stereo not drawn), less than 4.82.
`Cc1ccc(C2CC(C(F)(F)F)n3nc(C(=O)N(Cc4ccccc4)Cc4ccccc4)cc3N2)cc1` (stereo not drawn) showed a negative logarithm of the EC50 (pEC50) of less than 4.82.
`CCOc1cc(C2C(C(=O)OCC(C)C)=C(C)NC3=C2C(=O)CC(c2ccc(Cl)cc2)C3)ccc1O` (stereo not drawn) gave a pEC50 of less than 4.82.
The compound `CCn1c(CSCc2ccc(F)cc2)nnc1SCC(=O)Nc1cc(C(F)(F)F)ccc1Cl` came in with a pEC50 of less than 4.82.
To `COc1ccc(CN2CCCn3c4c(c5cc(C)ccc53)CCCC42)c(OC)c1` (stereo not drawn) belongs less than 4.82; to `N=c1n(CCN2CCOCC2)c2ccccc2n1CC(O)COc1ccccc1` (stereo not drawn), less than 4.82; to `COc1cccc(CNc2nnnn2C)c1OCc1ccc(C)cc1`, less than 4.82.
For the compound `Oc1ccc(Br)cc1CN1CCN(c2cccc(Cl)c2)CC1`, the pEC50 worked out at 6.06.
In the case of `C=CCn1nnnc1NCc1cc(Cl)c(OC)c(OC)c1`, the pEC50 was less than 4.82.
For `O=C(Nc1ccccc1)c1ccccc1OCC(O)CN(Cc1ccccc1)Cc1ccccc1` (stereo not drawn), the pEC50 was found to be 6.31.
In the case of `Cc1cccc2c(C(=O)N3CCN(C/C=C/c4ccccc4)CC3)cc(-c3cccnc3)nc12` it was less than 4.82; in that of `CN1CCN(CC(O)Cn2c3ccccc3c3cc(Cl)ccc32)CC1` (stereo not drawn), less than 4.82.
To `CC(C)(C)NCC(O)Cn1c2ccccc2c2ccccc21` (stereo not drawn) belongs 5.21.
`N=c1n(CCN2CCCCC2)c2ccccc2n1CC(O)c1cccc(Br)c1` (stereo not drawn) registered a negative-log EC50 (pEC50) of 5.73.
Regarding `Cc1cccc(Oc2c(C(F)(F)F)oc3c(CN4CCCC4)c(O)ccc3c2=O)c1`, the negative logarithm of the EC50 (pEC50) was less than 4.82.
In the case of `CCOC(=O)c1cnc2c(C)cccc2c1Nc1cccc(C(C)=O)c1`, the pEC50 was 5.35.
On to `CCC(C(=O)Nc1ccc(-c2nc3ccccc3[nH]2)cc1)c1ccccc1` (stereo not drawn), for which the pEC50 was less than 4.82.
Consider `CCCCNC(=O)c1cn(C2CCCCC2)cc(C(=O)NC2CCN(Cc3ccccc3)C2)c1=O` (stereo not drawn), for which the negative logarithm of the EC50 (pEC50) was less than 4.82.
Compound `Cc1ccc2c(c1)c1c3n2CCCN(Cc2ccc(Br)cc2)C3CCC1` (stereo not drawn) came in with a pEC50 of less than 4.82.
As to `O=c1c(Oc2ccc3ccccc3c2)c(C(F)(F)F)oc2c(CN3CCCC3)c(O)ccc12`, the negative logarithm of the EC50 (pEC50) turned out to be 5.27.
Consider `OC(CNc1cccc2ccccc12)Cn1c2ccccc2c2ccccc21` (stereo not drawn), for which the pEC50 is less than 4.82.
With `CCN(CC)CCN1C(=O)c2ccccc2NC1c1ccc(Cl)cc1Cl` (stereo not drawn), the pEC50 is less than 4.82.
In the case of `CN(C)c1ccc(NC(=O)C2CC2c2ccccc2)cc1` (stereo not drawn) it was less than 4.82; in that of `Cc1ccc(C)c(OCC(O)CNC2CCCC2)c1` (stereo not drawn), less than 4.82.
Consider `COc1ccc(CNC2CCCCC2)cc1OCC(O)CN(C)Cc1ccccc1` (stereo not drawn), for which the negative-log EC50 (pEC50) was less than 4.82.
`COc1ccc(N2CCN(C(=O)c3ccc(C)cc3)CC2)c([N+](=O)[O-])c1` had a pEC50 of 5.23.
As to `CCOC(=O)C1=C(C)NC2=C(C(=O)CC(c3ccc(Cl)cc3)C2)C1c1cccc(OC)c1OC` (stereo not drawn), the pEC50 was less than 4.82.
The compound `CCCCn1c(=N)n(CC(=O)c2ccc(Br)cc2)c2ccccc21` displayed a pEC50 of less than 4.82.
Compound `CC(C)(C)C(=O)N1CCN(C(c2ccccc2)c2ccccc2)CC1` showed a negative-log EC50 (pEC50) of less than 4.82.
In the case of `CC1CCC(C(C)C)C(OCC(O)CNC2CCCC2)C1` (stereo not drawn) it was 5.46; in that of `CN(C)CC(O)Cn1c2ccc(Cl)cc2c2cc(Cl)ccc21` (stereo not drawn), less than 4.82; in that of `N=c1n(CCN2CCOCC2)c2ccccc2n1CC(O)COc1ccc(Cl)cc1` (stereo not drawn), less than 4.82.
To `Cc1cc(Nc2ccccc2C(F)(F)F)nc(-n2nc(C)cc2C)n1` belongs less than 4.82; to `COc1cc(OC)c([N+](=O)[O-])cc1/C=N/NC(=O)C1CC1(c1ccccc1)c1ccccc1` (stereo not drawn), less than 4.82.
With `O=C(c1ccccc1)N1CCN(c2ccc([N+](=O)[O-])c(NC3CC3)c2)CC1`, the pEC50 is less than 4.82.
Compound `Cc1cccc(NCC(O)Cn2c3ccc(Cl)cc3c3cc(Cl)ccc32)c1` (stereo not drawn) displayed a pEC50 of 5.35.
To `CC(=O)Nc1ccc(-c2nc3cc(-c4nc5cc(NC(C)=O)ccc5[nH]4)ccc3[nH]2)cc1` belongs 6.5; to `COc1ccc(OC)c(C2CC(=O)C3=C(C2)NC(=O)CC3c2ccc(Cl)cc2Cl)c1` (stereo not drawn), less than 4.82; to `CCOC(=O)c1c(C)oc2cc(CN(C)C)c(O)cc12`, 5.29.
In the case of `COc1ccccc1-c1c(C(F)(F)F)oc2c(CN3CCOCC3)c(O)ccc2c1=O` it was less than 4.82.
With `Cc1cccc(C2(c3cccc(C)c3)CC2C(=O)Nc2ccc([N+](=O)[O-])cc2O)c1` (stereo not drawn), the negative logarithm of the EC50 (pEC50) stood at 5.36.
`CCOc1cc(C2C(C(=O)OCCOc3ccccc3)=C(C)NC3=C2C(=O)CC(c2ccc(Cl)cc2)C3)cc(Cl)c1O` (stereo not drawn) returned a pEC50 of less than 4.82.
In the case of `COc1cccc(CNCC(O)c2ccccc2)c1` (stereo not drawn) it was less than 4.82; in that of `Cc1ccc(C)c(Oc2c(C(F)(F)F)oc3c(CN4CCN(C)CC4)c(O)ccc3c2=O)c1`, less than 4.82.
In the case of `CC(Nc1cc(N2CCN(C(=O)c3ccccc3)CC2)ccc1[N+](=O)[O-])c1ccccc1` (stereo not drawn) it was 6.18; in that of `CC(C)c1ccc(/C=C/C(=O)Nc2ccc(F)cc2)cc1`, 5.21.
`CCOC(=O)C1=C(C)NC2=C(C(=O)CC(c3ccc(OC)cc3)C2)C1c1cccc(F)c1` (stereo not drawn) yielded a negative-log EC50 (pEC50) of 6.13.
In turn, `O=C(Nc1ccncc1)C1CC1c1ccccc1` (stereo not drawn) came in with a negative-log EC50 (pEC50) of less than 4.82.
Regarding `CCOc1ccccc1Oc1c(C(F)(F)F)oc2c(CN3CCCCCC3)c(O)ccc2c1=O`, the negative logarithm of the EC50 (pEC50) was less than 4.82.
`CC(C)c1ccc(/C=C/C(=O)Nc2ccc(C(C)C)cc2)cc1` gave a negative-log EC50 (pEC50) of less than 4.82.
The compound `CCN1/C(=C/C=C/C=C/c2sc3ccccc3[n+]2CC(=O)O)Sc2ccccc21` returned a pEC50 of less than 4.82.
In the case of `CC[n+]1c(/C=C/c2cc(C)n(-c3ccccc3)c2C)sc2ccccc21`, the negative logarithm of the EC50 (pEC50) is less than 4.82.
The compound `CCCCn1nnnc1NCc1ccc(OC)c(OC)c1OC` gave a negative-log EC50 (pEC50) of 6.32.
On to `CN1CCN([C@@H]2CCN(Cc3cc(Cl)ccc3O)C[C@H]2O)CC1`, for which the negative-log EC50 (pEC50) was less than 4.82.
`Cc1ccc(C(=O)Cn2c(=N)n(CCN3CCCCC3)c3ccccc32)cc1` showed a pEC50 of less than 4.82.
`Cc1cc(Cl)ccc1OCC(O)CNC1CCCC1` (stereo not drawn) came in with a negative logarithm of the EC50 (pEC50) of 5.18.
In the case of `CN1CCN(Cc2c(O)ccc3c(=O)c(Oc4ccc5ccccc5c4)c(C(F)(F)F)oc23)CC1` it was less than 4.82; in that of `COc1cc(OC)cc(C(=O)Nc2ccc(-c3nc4cc(C)ccc4[nH]3)cc2)c1`, 5.29; in that of `CCCCn1c(=N)n(CC(O)COc2ccc(Cl)cc2)c2ccccc21` (stereo not drawn), less than 4.82.
To `CCCCNCC(O)COc1ccc(Cl)c(C)c1` (stereo not drawn) belongs 5.14; to `CCOC(=O)C1=C(C)NC2=C(C(=O)CC(c3ccco3)C2)C1c1ccc(OC)c(OC)c1` (stereo not drawn), less than 4.82.
In the case of `CCc1ccc(NC(=O)/C=C/c2ccccc2Cl)cc1`, the pEC50 is 6.69.
`Cc1cccc(Oc2c(C(F)(F)F)oc3c(CN4CCC(C)CC4)c(O)ccc3c2=O)c1` yielded a pEC50 of less than 4.82.
`CCN(CC)CC(O)Cn1c2ccccc2c2ccccc21` (stereo not drawn) showed a pEC50 of 5.34.
On to `Oc1ccc(Br)cc1CN1CCN(Cc2cccc3ccccc23)CC1`, for which the pEC50 came out at 6.3.
As for `OCCC1CN(Cc2cc(Cl)ccc2O)CCN1C1CCCCC1` (stereo not drawn), the pEC50 is less than 4.82.
`COc1cc(C2CC(=O)NC3=C2C(=O)CC(c2ccc(C)cc2)C3)ccc1O` (stereo not drawn) came in with a pEC50 of less than 4.82.
In the case of `Oc1ccc(Br)cc1CN1CCN(C2CCCCCC2)CC1` it was 6.34; in that of `COc1cc(C2CC(=O)NC3=C2C(=O)CC(c2ccc(OC)c(OC)c2)C3)c(OC)cc1Br` (stereo not drawn), 6.86.
Take `O=C1CC(c2c(F)cccc2Cl)C2=C(CC(c3ccc(F)cc3)CC2=O)N1` (stereo not drawn): the negative logarithm of the EC50 (pEC50) was less than 4.82.
Turning to `Oc1ccc(Br)cc1CN1CCN(CC2CC3C=CC2C3)CC1` (stereo not drawn), the pEC50 was found to be 5.39.
In the case of `O=S(=O)(c1cccc(C(F)(F)F)c1)N1CCC(CO)(Cc2cccc(C(F)(F)F)c2)CC1` it was 5.68.
The compound `O=S(=O)(c1ccccc1)N1CCC(CO)(Cc2ccccc2C(F)(F)F)CC1` returned a pEC50 of less than 4.82.
`N=c1n(CCN2CCCCC2)c2ccccc2n1CC(O)COc1ccc(Cl)cc1` (stereo not drawn) displayed a pEC50 of 5.33.
For the compound `O=C(Nc1ccc(-c2nc3cc(-c4nc5cc(NC(=O)c6cccc7ccccc67)ccc5[nH]4)ccc3[nH]2)cc1)c1cccc2ccccc12`, the negative logarithm of the EC50 (pEC50) was less than 4.82.
